Assay results from the supplement of paper PMC10307832.

Columns and labels:
Assay in all cases: relative viability (nuclei count vs DMSO), 5 days (fraction); higher = more cells survive
SK-MES-1 = test system: SK-MES-1
Outline: (§1)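 Nuclei were stained with Hoechst during a one-step fixation (final 0.05% Triton X-100, 1% formaldehyde, 1 ug/ml Hoechst) carried out 5 days after dosing, then counted on 4× images. The cells, lung cancer lines in 1536-well plates, had been dosed by pin tool the day after seeding with one drug alone or a fixed anchor-drug dose plus five library-drug doses (not always all listed) in √10 steps. Relative viability is the nuclei count in treated wells divided by that in vehicle wells, and each value is the median of duplicate plates.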

NCI-H1734 = test system: NCI-H1734
Outline: as §1

A-427 = test system: A-427
Outline: as §1

NCI-H2228 = test system: NCI-H2228
Outline: as §1

NCI-H2170 = test system: NCI-H2170
Outline: as §1

SW 1573 = test system: SW 1573
Outline: as §1

NCI-H1993 = test system: NCI-H1993
Outline: as §1

NCI-H1792 = test system: NCI-H1792
Outline: as §1

RERF-LC-KJ = test system: RERF-LC-KJ
Outline: as §1

HCC-366 = test system: HCC-366
Outline: as §1

NCI-H1755 = test system: NCI-H1755
Outline: as §1

LCLC-103H = test system: LCLC-103H
Outline: as §1

NCI-H2342 = test system: NCI-H2342
Outline: as §1

HCC-827 = test system: HCC-827
Outline: as §1

UMC-11 = test system: UMC-11
Outline: as §1

NCI-H1975 = test system: NCI-H1975
Outline: as §1

NCI-H2347 = test system: NCI-H2347
Outline: as §1

LC-2-ad = test system: LC-2-ad
Outline: as §1

NCI-H23 = test system: NCI-H23
Outline: as §1

NCI-H650 = test system: NCI-H650
Outline: as §1

SK-LU-1 = test system: SK-LU-1
Outline: as §1

NCI-H1915 = test system: NCI-H1915
Outline: as §1

NCI-H1355 = test system: NCI-H1355
Outline: as §1

## Cc1csc(=NC2CCCCC2)n1/N=C/c1ccc(O)c(O)c1O [MIM1] + O=C(c1cc(Cc2n[nH]c(=O)c3ccccc23)ccc1F)N1CCN(C(=O)C2CC2)CC1 [Olaparib] (partner 8 µM)
SK-MES-1; first compound 0.2 µM
  relative viability: 0.743
SK-MES-1; first compound 0.6325 µM
  relative viability: 0.657
SK-MES-1; first compound 2 µM
  relative viability: 0.548
SK-MES-1; first compound 6.325 µM
  relative viability: 0.259
SK-MES-1; first compound 20 µM
  relative viability: 0.108
NCI-H1734; first compound 0.2 µM
  relative viability: 0.58
NCI-H1734; first compound 0.6325 µM
  relative viability: 0.632
NCI-H1734; first compound 2 µM
  relative viability: 0.559
NCI-H1734; first compound 6.325 µM
  relative viability: 0.496
NCI-H1734; first compound 20 µM
  relative viability: 0.132
A-427; first compound 0.2 µM
  relative viability: 0.757
A-427; first compound 0.6325 µM
  relative viability: 0.738
A-427; first compound 2 µM
  relative viability: 0.71
A-427; first compound 6.325 µM
  relative viability: 0.671
A-427; first compound 20 µM
  relative viability: 0.281
NCI-H2228; first compound 0.2 µM
  relative viability: 0.719
NCI-H2228; first compound 0.6325 µM
  relative viability: 0.719
NCI-H2228; first compound 2 µM
  relative viability: 0.861
NCI-H2228; first compound 6.325 µM
  relative viability: 0.227
NCI-H2228; first compound 20 µM
  relative viability: 0.192
NCI-H2170; first compound 0.2 µM
  relative viability: 0.539
NCI-H2170; first compound 0.6325 µM
  relative viability: 0.533
NCI-H2170; first compound 2 µM
  relative viability: 0.528
NCI-H2170; first compound 6.325 µM
  relative viability: 0.269
NCI-H2170; first compound 20 µM
  relative viability: 0.141
SW 1573; first compound 0.2 µM
  relative viability: 0.515
SW 1573; first compound 0.6325 µM
  relative viability: 0.471
SW 1573; first compound 2 µM
  relative viability: 0.608
SW 1573; first compound 6.325 µM
  relative viability: 0.321
SW 1573; first compound 20 µM
  relative viability: 0.1
NCI-H1993; first compound 0.2 µM
  relative viability: 1
NCI-H1993; first compound 0.6325 µM
  relative viability: 0.819
NCI-H1993; first compound 2 µM
  relative viability: 0.949
NCI-H1993; first compound 6.325 µM
  relative viability: 0.873
NCI-H1993; first compound 20 µM
  relative viability: 0.432
NCI-H1792; first compound 0.2 µM
  relative viability: 0.469
NCI-H1792; first compound 0.6325 µM
  relative viability: 0.368
NCI-H1792; first compound 2 µM
  relative viability: 0.454
NCI-H1792; first compound 6.325 µM
  relative viability: 0.279
NCI-H1792; first compound 20 µM
  relative viability: 0.398
RERF-LC-KJ; first compound 0.2 µM
  relative viability: 0.662
RERF-LC-KJ; first compound 0.6325 µM
  relative viability: 0.557
RERF-LC-KJ; first compound 2 µM
  relative viability: 0.197
RERF-LC-KJ; first compound 6.325 µM
  relative viability: 0.221
RERF-LC-KJ; first compound 20 µM
  relative viability: 0.215
HCC-366; first compound 0.2 µM
  relative viability: 0.351
HCC-366; first compound 2 µM
  relative viability: 0.249
HCC-366; first compound 6.325 µM
  relative viability: 0.0373
HCC-366; first compound 20 µM
  relative viability: 0.0269
NCI-H1755; first compound 0.2 µM
  relative viability: 0.857
NCI-H1755; first compound 0.6325 µM
  relative viability: 0.84
NCI-H1755; first compound 2 µM
  relative viability: 0.94
NCI-H1755; first compound 6.325 µM
  relative viability: 0.699
NCI-H1755; first compound 20 µM
  relative viability: 0.262
LCLC-103H; first compound 0.2 µM
  relative viability: 0.814
LCLC-103H; first compound 0.6325 µM
  relative viability: 0.771
LCLC-103H; first compound 2 µM
  relative viability: 0.782
LCLC-103H; first compound 6.325 µM
  relative viability: 0.532
LCLC-103H; first compound 20 µM
  relative viability: 0.336
NCI-H2342; first compound 0.2 µM
  relative viability: 0.432
NCI-H2342; first compound 0.6325 µM
  relative viability: 0.386
NCI-H2342; first compound 2 µM
  relative viability: 0.42
NCI-H2342; first compound 6.325 µM
  relative viability: 0.395
NCI-H2342; first compound 20 µM
  relative viability: 0.571
HCC-827; first compound 0.2 µM
  relative viability: 0.653
HCC-827; first compound 0.6325 µM
  relative viability: 0.626
HCC-827; first compound 2 µM
  relative viability: 0.639
HCC-827; first compound 6.325 µM
  relative viability: 0.37
HCC-827; first compound 20 µM
  relative viability: 0.241
UMC-11; first compound 0.2 µM
  relative viability: 0.408
UMC-11; first compound 0.6325 µM
  relative viability: 0.4
UMC-11; first compound 2 µM
  relative viability: 0.548
UMC-11; first compound 6.325 µM
  relative viability: 0.237
UMC-11; first compound 20 µM
  relative viability: 0.183
NCI-H1975; first compound 0.2 µM
  relative viability: 0.737
NCI-H1975; first compound 0.6325 µM
  relative viability: 0.755
NCI-H1975; first compound 2 µM
  relative viability: 0.778
NCI-H1975; first compound 6.325 µM
  relative viability: 0.307
NCI-H1975; first compound 20 µM
  relative viability: 0.17
NCI-H2347; first compound 0.2 µM
  relative viability: 0.525
NCI-H2347; first compound 0.6325 µM
  relative viability: 0.559
NCI-H2347; first compound 2 µM
  relative viability: 0.653
NCI-H2347; first compound 6.325 µM
  relative viability: 0.508
NCI-H2347; first compound 20 µM
  relative viability: 0.469
LC-2-ad; first compound 0.2 µM
  relative viability: 0.616
LC-2-ad; first compound 0.6325 µM
  relative viability: 0.683
LC-2-ad; first compound 2 µM
  relative viability: 0.665
LC-2-ad; first compound 6.325 µM
  relative viability: 0.303
LC-2-ad; first compound 20 µM
  relative viability: 0.211
NCI-H23; first compound 0.2 µM
  relative viability: 0.302
NCI-H23; first compound 0.6325 µM
  relative viability: 0.266
NCI-H23; first compound 2 µM
  relative viability: 0.215
NCI-H23; first compound 6.325 µM
  relative viability: 0.111
NCI-H23; first compound 20 µM
  relative viability: 0.13
NCI-H650; first compound 0.2 µM
  relative viability: 0.421
NCI-H650; first compound 0.6325 µM
  relative viability: 0.364
NCI-H650; first compound 2 µM
  relative viability: 0.381
NCI-H650; first compound 6.325 µM
  relative viability: 0.357
NCI-H650; first compound 20 µM
  relative viability: 0.127
SK-LU-1; first compound 0.2 µM
  relative viability: 0.447
SK-LU-1; first compound 0.6325 µM
  relative viability: 0.559
SK-LU-1; first compound 2 µM
  relative viability: 0.575
SK-LU-1; first compound 6.325 µM
  relative viability: 0.281
SK-LU-1; first compound 20 µM
  relative viability: 0.299
NCI-H1915; first compound 0.2 µM
  relative viability: 0.255
NCI-H1915; first compound 0.6325 µM
  relative viability: 0.248
NCI-H1915; first compound 2 µM
  relative viability: 0.236
NCI-H1915; first compound 6.325 µM
  relative viability: 0.203
NCI-H1915; first compound 20 µM
  relative viability: 0.133
NCI-H1355; first compound 0.2 µM
  relative viability: 0.731
NCI-H1355; first compound 0.6325 µM
  relative viability: 0.664
NCI-H1355; first compound 2 µM
  relative viability: 0.803
NCI-H1355; first compound 6.325 µM
  relative viability: 0.603
NCI-H1355; first compound 20 µM
  relative viability: 0.297
